Reference: publication PMC4792470, “A Novel Manno-Oligosaccharide Binding Protein Identified in Alkaliphilic Bacillus sp. N16-5 Is Involved in Mannan Utilization” (PLoS ONE, 2016)

Target: T1, ManH (Bacillus sp. N16-5, UniProt A0A140EH86)
T1 construct: without N-terminal signal peptide; pET-28a NcoI/BamHI, native stop codon in primer; E. coli BL21(DE3); anion exchange; primers give N-terminus (M)DENTGGN and C-terminus SLEGIE; full-length starts MNKKLWL by primer
T1 sequence (A0A140EH86 17-435): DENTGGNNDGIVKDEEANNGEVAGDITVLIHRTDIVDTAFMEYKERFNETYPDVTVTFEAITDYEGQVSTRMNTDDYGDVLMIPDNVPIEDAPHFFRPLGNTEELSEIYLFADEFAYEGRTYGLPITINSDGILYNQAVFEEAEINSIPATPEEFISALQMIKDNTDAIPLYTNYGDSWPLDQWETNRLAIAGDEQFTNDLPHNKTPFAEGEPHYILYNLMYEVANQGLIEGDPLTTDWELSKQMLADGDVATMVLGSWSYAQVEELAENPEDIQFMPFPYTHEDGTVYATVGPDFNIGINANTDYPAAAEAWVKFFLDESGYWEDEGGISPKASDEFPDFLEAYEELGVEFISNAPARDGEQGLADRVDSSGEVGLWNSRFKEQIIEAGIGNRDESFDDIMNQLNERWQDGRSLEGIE
Test: isothermal titration calorimetry
Format: binding
Settings: 20 mM Tris-HCl pH 8.0, 200 mM NaCl, 30 °C; independent-site model
From the text: isothermal titration calorimetry on ManH

Molecule	Kd (1/Ka, μM)
OC[C@H]1O[C@@H](O[C@H]2[C@H](O)[C@H](O)[C@H](O[C@H]3[C@H](O)[C@H](O)[C@H](O[C@H]4[C@H](O)[C@H](O)[C@H](O[C@H]5[C@H](O)[C@H](O)C(O)O[C@@H]5CO)O[C@@H]4CO)O[C@@H]3CO)O[C@@H]2CO)[C@@H](O)[C@@H](O)[C@@H]1O (stereo partly shown) [mannopentose]	0.8 µM
OC[C@H]1O[C@@H](O[C@H]2[C@H](O)[C@H](O)[C@H](O[C@H]3[C@H](O)[C@H](O)[C@H](O[C@H]4[C@H](O)[C@H](O)C(O)O[C@@H]4CO)O[C@@H]3CO)O[C@@H]2CO)[C@@H](O)[C@@H](O)[C@@H]1O (stereo partly shown) [mannotetraose]	2.2 µM
OC[C@H]1O[C@@H](O[C@H]2[C@H](O)[C@H](O)[C@H](O[C@H]3[C@H](O)[C@H](O)C(O)O[C@@H]3CO)O[C@@H]2CO)[C@@H](O)[C@@H](O)[C@@H]1O (stereo partly shown) [mannotriose]	3.8 µM
galactosyl-mannotriose	19.4 µM
